Measured values: article PMC11879692, “PDE4 inhibitor rolipram represses hedgehog signaling via ubiquitin-mediated proteolysis of GLI transcription factors to regress breast cancer” (The Journal of Biological Chemistry, 2025)

Legend:
MDA-MB-231 cells [1] = experiment: Western blot analysis of protein expression; format: cell-based, human
Procedure: (§1) After treatment of cells with rolipram, proteins were extracted from cells by lysing the cells with radioimmunoprecipitation assay buffer, comprising of 150 mM NaCl, 1% Triton X-100, 0.5% sodium deoxycholate, and 0.1% SDS. Equal amount of proteins (40 μg) were resolved using SDS-PAGE before transferring onto nitrocellulose membrane (Immobilon-NC Transfer Membrane; Merck Millipore; catalog no.: HATF00010). The membranes were then incubated overnight with primary antibody at a dilution of 1:1000 at 4°C followed by incubation with secondary antibodies at a dilution of 1:5000 for 2 h at room temperature. Immune detection was performed using femtoLUCENT PLUS-HRP (G-Biosciences; catalog no.: 786-003), and the image was obtained from the Bio-Rad ChemiDoc XRS+ system. Analysis of protein expression was carried out using Bio-Rad Image Lab software (RRID: SCR_014210) and National Institutes of Health ImageJ software ([34]) (RRID: SCR_003070). All protein expressions were normalized against β-tubulin (loading control).

MCF-7 cells [2] = experiment: Western blot analysis of protein expression; format: cell-based, human
Procedure: as §1

MDA-MB-231 cells [3] = experiment: MTT cell viability assay; format: cell-based; settings: Homo sapiens, 24 h, read-out: concentration for 50% growth inhibition (IC50)
Procedure: (§2) To determine the concentration of rolipram required for 50% growth inhibition (IC50) of MCF-7 and MDA-MB-231 cells, MTT (3-[4,5-dimethylthiazol-2-yl]-2,5 diphenyl tetrazolium bromide) assay, which relies on the reduction of MTT to form purple-colored formazan crystals by mitochondrial dehydrogenases, was performed ([27]). Cells were seeded in a 96-well plate at a density of 3 × 10^3 cells/well and treated with increasing concentrations of rolipram ranging from 1 to 80 μM. MTT (G Biosciences; catalog no.: RC1130) was added after 24 h of treatment, formazan crystals were dissolved in 100 μl of DMSO, and absorbance measured at 595 nm using the BioRad iMark Microplate Reader (RRID: SCR_023799). The percentage of metabolically active cells was calculated with respect to untreated control cells, negating the blank reading. Graphs were plotted for the percentages of viable cells against the concentrations of rolipram to obtain linear trend-line equations, which were used to derive the IC50 concentration of rolipram for each cell lines. The IC50 doses were used for all subsequent experiments ([28]).

MCF-7 cells [4] = experiment: MTT cell viability assay; format: cell-based; settings: Homo sapiens, MCF7, 24 h, read-out: concentration for 50% growth inhibition (IC50)
Procedure: as §2

[5] = tested on: GLI2 and GLI3 in MDA-MB-231 cells; experiment: Ubiquitination of GLI2 and GLI3 (HA-Ub transfection, immunoprecipitation, anti-HA blot); format: cell-based, human
Procedure: (§3) HA-Ubiquitin plasmid (Addgene; catalog no.: plasmid #18712, RRID: Addgene_18712) was transfected into MCF-7 and MDA-MB-231 cells using X-tremeGENE HP DNA Transfection Reagent (Roche; catalog no.: XTGHP-RO). Proteins were extracted from the untreated control cells and cells treated with rolipram for 24 h and were immunoprecipitated using antibodies raised against GLI2 and GLI3. The immunoprecipitation involved overnight incubation of protein and antibodies in Pierce Protein A/G Agarose (Thermo Scientific; catalog no.: 20421) at 4°C. Following immunoprecipitation, the precipitate was subjected to Western blot analysis using anti-HA antibodies (Cell Signaling Technology; catalog no.: 2367; RRID: AB_10691311) to observe ubiquitination of the desired proteins. Cells were cotreated with MG-132 (Sigma–Aldrich; catalog no.: M7449), a proteosomal blocker for ascertaining ubiquitination ([35]).

[6] = tested on: GLI2 and GLI3 in MCF-7 cells; experiment: as above; format: cell-based, human
Procedure: as §3

[7] = tested on: intracellular cAMP in MDA-MB-231 cells; experiment: cAMP assay (ELISA-based kit), intracellular cAMP; format: cell-based, human; settings: 24 h, untreated 12.55 pmol/ml
Procedure: (§4) To determine the intracellular level of cAMP, a […] ELISA-based cAMP assay kit was used, which relies on preparation of a standard curve for cAMP (pmol/ml) and denoting all the experimental values from the standard curve, and finally expressing as mean values with standard errors of triplicate samples per treatment group. The assay kit was obtained from Cayman Chemicals (item no.: 581001), and the assay was performed following the manufacturer’s protocol after washing the cells with 1X PBS (composition: 137 mM NaCl, 2.7 mM KCl, 10 mM Na2HPO4, and 1.8 mM KH2PO4) and treating with 0.1 M HCl for 20 min and sonicating the cells for lysis. In brief, the cell lysate was added to the 96-well plate precoated with mouse monoclonal anti-rabbit IgG and which also contained cAMP–acetylcholinesterase (cAMP tracer) that competes with the free cAMP in the cell lysate to bind to the cAMP-specific rabbit antibody. Following several washes, the absorbance of the color generated because of addition of acetylcholinesterase substrate is measured at 412 nm by Bio-Rad iMark Microplate Reader (RRID: SCR_023799), which is inversely proportional to the amount of free cAMP present in the cell lysate ([29]).

[8] = tested on: intracellular cAMP in MCF-7 cells; experiment: cAMP assay (ELISA-based kit), intracellular cAMP; format: cell-based, human; settings: 24 h, untreated control 14.1 pmol/ml
Procedure: as §4

[9] = MDA-MB-231, IC50 dose, time course

## COc1ccc(C2CNC(=O)C2)cc1OC1CCCC1 (centres unmarked) [rolipram, Rolipram]
MDA-MB-231 cells [1]; MDA-MB-231 (TNBC cells)
  reduction of MMP9 expression: twofold
MDA-MB-231 cells [1]; MDA-MB-231, IC50 dose
  downregulation of expression of MMP2: twofold
  levels of phospho-Akt: reduced
  levels of phosphorylated-GSK3β: reduced levels
MDA-MB-231 cells [1]; MDA-MB-231, IC50 dose, 48 h
  level of GLI2R: decreased slightly
MDA-MB-231 cells [1]; [9]
  level of GLI2FL: significantly decreased with time
  level of GLI3R: increased with time
  levels of PKA: increased levels
MDA-MB-231 cells [1]; MDA-MB-231, IC50 dose, time-dependent
  level of GLI1: reduced
MDA-MB-231 cells [1]; MDA-MB-231, IC50 dose, up to 24 h
  level of GLI2R: increased up to 24 h
MDA-MB-231 cells [1]; MDA-MB-231, IC50 dose, within 12 h
  elevated expression of PTEN: threefold
MDA-MB-231 cells [1]; MDA-MB-231, after 24 h
  level of E-cadherin: no conclusive change
MDA-MB-231 cells [1]; MDA-MB-231, after 48 h
  levels of vimentin: decrease
MDA-MB-231 cells [1]; MDA-MB-231, cotreatment with H89 (10 μM), 24 h, vs control and H89 only
  levels of GLI proteins: unaltered
MDA-MB-231 cells [1]; MDA-MB-231, in combination with TAK-243 (0.1 μM), 24 h
  repressor forms of GLI2 and GLI3: failed to produce the repressor forms
MDA-MB-231 cells [1]; MDA-MB-231, in the presence of TAK-243
  effects on expressions of MMPs, E-cadherin, and vimentin: failed to exert any of the aforementioned effects
MCF-7 cells [2]; MCF-7 (hormone-responsive cells), 48 h
  reduction of MMP9 expression: fourfold
MCF-7 cells [2]; MCF-7, IC50 dose
  downregulation of expression of MMP2: twofold
  levels of phospho-Akt: reduced
  levels of phosphorylated-GSK3β: reduced levels
MCF-7 cells [2]; MCF-7, IC50 dose, time course
  level of GLI2FL: remained unchanged
  level of GLI2R: increased with time
  level of GLI3R: increased with time
  levels of PKA: increased levels
MCF-7 cells [2]; MCF-7, IC50 dose, time-dependent
  level of GLI1: reduced
MCF-7 cells [2]; MCF-7, IC50 dose, within 12 h
  elevated expression of PTEN: threefold
MCF-7 cells [2]; MCF-7, after 48 h
  levels of vimentin: decrease
MCF-7 cells [2]; MCF-7, cotreatment with H89 (10 μM), 24 h, vs control and H89 only
  levels of GLI proteins: unaltered
MCF-7 cells [2]; MCF-7, in combination with TAK-243 (0.1 μM), 24 h
  repressor forms of GLI2 and GLI3: failed to produce the repressor forms
MCF-7 cells [2]; MCF-7, in the presence of TAK-243
  effects on expressions of MMPs, E-cadherin, and vimentin: failed to exert any of the aforementioned effects
MCF-7 cells [2]; MCF-7, within 24 h
  elevation of level of E-cadherin: twofold
MDA-MB-231 cells [3]
  IC50: 53 µM
MCF-7 cells [4]
  IC50: 38 µM
[5]; MDA-MB-231, IC50 dose
  ubiquitination of GLI2 and GLI3: ubiquitination of both proteins was also observed
[5]; MDA-MB-231, in the presence of H89
  ubiquitination of GLI2 and GLI3: not able to induce ubiquitination
[6]; MCF-7, IC50 dose, 6 h to 24 h
  ubiquitination of GLI2 and GLI3: significant ubiquitination
[6]; MCF-7, in the presence of H89
  ubiquitination of GLI2 and GLI3: not able to induce ubiquitination
[7]; MDA-MB-231, IC50 dose
  intracellular cAMP level: 37.41 pmol/mL
[7]; MDA-MB-231, half IC50 dose
  intracellular cAMP level: 28.35 pmol/mL
[8]; MCF-7, IC50 dose
  intracellular cAMP level: 43.12 pmol/mL
[8]; MCF-7, half IC50 dose
  intracellular cAMP level: 24.02 pmol/mL
